Laboratory results: patent US20260137689A1, “INTEGRATION OF MOLECULAR MECHANISMS IN THE STRIATUM AS A COMBINATION DRUG STRATEGY FOR THE TREATMENT OF PSYCHIATRIC AND NEUROLOGICAL DISORDERS IN WHICH ANHEDONIA OR MOTIVATION-RELATED DYSFUNCTION EXISTS” (Alto Neuroscience, Inc., priority 2021, published 2026)
Like-named read-outs stand apart in the source and are kept apart here.

Key:
[1] = system: release of gamma-aminobutyric acid (GABA); conditions: cited from earlier work
C57/BL6 mice = assay: Forced swim test; assay type: in vivo; conditions: FIG. 2 doses: imipramine 20 mg/kg, istradefylline 0.1 mg/kg, varenicline 0.17 mg/kg, alone or combined
Description: FIG. 2 is a bar graph of the time during a forced swim test after treatment with saline, 20 mg/kg for imipramine, 0.1 mg/kg for istradefylline, 0.17 mg/kg for varenicline, and a combination of 0.1 mg/kg for istradefylline and 0.17 mg/kg for varenicline.
Without being bound by a particular theory, the inventors theorized that an increase in dopamine release, when coupled with A2A antagonism, could result in an antidepressant response-essentially aiming to replace direct D2 agonism with a drug that leads to its release and to an increase in D2/D3 receptor availability. […] Of note, however, varenicline has been approved in humans for smoking cessation, and initially carried a black box for increased risk for development of depression, a seemingly opposite outcome to our goal. To determine whether such a combination is viable, we conducted forced swim tests in C57/BL6 mice. […] One such example is 5 mg-40 mg of istradefylline together with 0.25-3 mg of varenicline.
To determine whether such a combination is viable, forced swim tests in C57/BL6 mice were conducted. The forced-swim test is used to assess depressive-like behavior in mice. The time spent immobile is considered a measure of depressive-like behavior. Immobility scores for each mouse were determined by manual scoring.

D2 receptor = conditions: striatal slices from reserpinized rats (ref. 33); cited from earlier work
D2/D3 receptor = conditions: rodents (refs. 45, 46); cited from earlier work
dopamine release [2] = conditions: rodents (ref. 43); cited from earlier work
Parkinson's models = Parkinson's models (ref. 47); cited from earlier work
dopamine release [3] = conditions: humans (ref. 44); cited from earlier work

NC(C(=O)O)c1cc(O)ccc1Cl (racemic) [CHPG, (RS)-2-chloro-5-hydroxyphenylglycine]
effect on GABA release by itself ([1]; alone (ref. 38)): ineffective by itself
effect on quinpirole-induced change of neuronal activity (GABA release) ([1]; with the D2/D3 agonist quinpirole (ref. 38)): able to counteract the effects

CN(C)CCCN1c2ccccc2CCc2ccccc21 [imipramine]
antidepressant response (time spent immobile) in forced swim test (C57/BL6 mice): decrease in immobility

Nc1nc(NCCc2ccc(O)cc2)nc2nc(-c3ccco3)nn12 [ZM 241385]
effect on affinity of the D2 receptor for the D2/D3 agonist quinpirole (D2 receptor): increased the affinity

c1cnc2cc3c(cc2n1)[C@@H]1CNC[C@H]3C1 [varenicline]
antidepressant response (time spent immobile) in forced swim test (C57/BL6 mice): by themselves ineffective
D2/D3 receptor availability (D2/D3 receptor): increase D2/D3 receptor availability
dopamine release (dopamine release [2]): increase dopamine release
motor functioning (Parkinson's models): improve motor functioning
dopamine release (dopamine release [3]): increase dopamine release

CCNC(=O)[C@H]1O[C@@H](n2cnc3c(N)nc(NCCc4ccc(CCC(=O)O)cc4)nc32)[C@H](O)[C@@H]1O [CGS 21680]
effect on affinity of the D2 receptor for the D2/D3 agonist quinpirole (D2 receptor): decreased the affinity
